Results from US9889126B2, “Use of naratriptan in the treatment of rosacea” (GALDERMA RESEARCH & DEVELOPMENT, priority 2013, dated 2018).

Legend:
[1] = test system: human subcutaneous veins; assay: Vascular tonicity of human subcutaneous veins ex vivo, myography; format: cell-based; conditions: for EC50 / Emax (% max. contraction vs. 80 mM KCL): human subcutaneous vein, n=1; for EC50: dose-response
Procedure: (§1) Human subcutaneous veins are isolated from healthy human skin derived from plastic surgery operative waste (abdominal plasty). On receipt the skin sample is held at 4° C. in a receptacle containing physiological saline solution (PSS) 1× at pH=7.4. Dissection, isolation and mounting of the veins are conducted in cold PSS pH=7.4 using straight forceps and a stereomicroscope. Once the vein is isolated and cleaned of surrounding fat and conjunctive tissue, a segment 2 mm in length and diameter of between 100 and 600 μm is mounted in the myograph chamber between two 40 μm tungsten wires attached to removable jaws connected to the tension sensor and held in physiological saline solution (PSS) at pH=7.4 and 37° C. To perform the myography study the vein is placed at working pre-tension (g) corresponding to physiological pressure of 18 mmHg. Pre-tensioning is obtained by mechanical action to draw apart the tungsten wires (40 μm). The viability of the vessel is verified by depolarising the membrane of the vessel smooth muscle cells by increasing the concentration of potassium in the chamber. To do so the PSS solution contained in each chamber is replaced by a solution containing 80 mM KCl at pH=7.4 and pre-heated to 37° C. This step must be repeated twice with 1×PSS washing to cause relaxation between each contraction. At this stage if there is no change in measured tension the isolated vessel is considered non-viable. Naratriptan was evaluated by dose-response (n=1) to determine its maximum contraction intensity (Emax) and strength (EC50). The vessel was treated with increasing successive doses of product added every 3 minutes to the myograph chamber. Tension data (g) are successively converted to: • Tension (mN) 1 g=9.81 mN • Tension applied to the vessel wall (mN/mm): by dividing the tension value in mN by twice the length of the vessel i.e. 4 mm.
(§2) Data are then expressed for the vasoconstrictor product in percentage contraction (%) taking as 100% the value obtained for treatment with 80 mM KCl at step 1 to verify vessel viability.
(§3) The method used for this study is identical to the method used in Example 1. To perform myographic studies the vein is placed at a pre-tension (g) corresponding to physiological pressure of 18 mmHg while the artery is placed at a pre-tension of 90 mmHg since an artery wall is thicker than a vein wall.
(§4) The myograph apparatus has four independent chambers. Therefore four vessel segments were mounted in parallel in each study. Each compound was subjected to dose-response evaluation for each type of vessel (n=1). The vessel was therefore treated with successive, increasing concentrations of product added every 3 minutes to the myograph chamber. The tested compounds were naratriptan, sumatriptan, almotriptan and Rizatriptan.

[2] = Release and penetration into dermatomized human skin (Franz cells); format: in vitro ADME; conditions: 2% in PBS; for Mass balance: mean
[3] = test system: human subcutaneous artery; assay: Vascular tonicity of human subcutaneous arteries ex vivo, myography; format: cell-based; conditions: for EC50: sc, dose-response
Procedure: as §1, §2, §3, §4

[4] = test system: neurogenic inflammation induced in mouse ear; assay: Neurogenic inflammation assay, mouse ear, reziniferatoxin (RTX); format: in vivo
Procedure: The compound was then tested in a water/ethanol carrier to increase solubility.

For `CN(C)CCc1c[nH]c2ccc(CS(=O)(=O)N3CCCC3)cc12` [Almotriptan, almotriptan], the EC50 [1] was 62 nM, the “Emax (% max. contraction vs. 80 mM KCL)” value [1] was 97% and the Total skin [2] was 1.86 % applied dose. The Mass balance [2] was 94.16 % applied dose.
In the case of `CNS(=O)(=O)CCc1ccc2[nH]cc(C3CCN(C)CC3)c2c1` [Naratriptan, N-methyl-2-[3-(1-methylpiperidin-4-yl)-1H-indol-5-yl]ethanesulfonamide], the “Persistent effect on the human vein after successive washings, time after removal of the compound” value ([1]; Example 1, after removal of compound from the chamber) is reported as at most 90 min, the EC50 [1] is reported as 13 nM and the “Emax (% max. contraction vs. 80 mM KCL)” value [1] is reported as 105%. For the same compound, the “Emax (% max. contraction vs. 80 mM KCl)” value ([3]; n=1) was 82%, the EC50 ([3]; n=1) was 20 nM and the “Inhibition of neurogenic inflammation” value ([4]; 1% in acetone carrier, up to 45 minutes after treatment, single RTX application) was “significantly inhibited”. For the same compound, the “Inhibition of neurogenic inflammation” value ([4]; 1% topical in water/ethanol carrier, treatment time 15 minutes) was “significant inhibition”, the Total skin [2] was 3.46 % applied dose and the Mass balance [2] was 91.22 % applied dose. The Total skin ([2]; listed as Naratriptan hydrochloride) was 3.61 % applied dose.
In the case of `CN(C)CCc1c[nH]c2ccc(Cn3cncn3)cc12` [Rizatriptan, rizatriptan], the EC50 [1] is reported as 93 nM, the “Emax (% max. contraction vs. 80 mM KCL)” value [1] is reported as 94% and the “Emax (% max. contraction vs. 80 mM KCl)” value ([3]; n=1) is reported as 54%. The EC50 ([3]; n=1) was 217 nM.
With `CNS(=O)(=O)Cc1ccc2[nH]cc(CCN(C)C)c2c1` [Sumatriptan, sumatriptan] the EC50 [1] was 65 nM, the “Emax (% max. contraction vs. 80 mM KCL)” value [1] was 101% and the “Emax (% max. contraction vs. 80 mM KCl)” value ([3]; n=1) was 61%. The “Emax (% max. contraction vs. 80 mM KCl)” value ([3]; n=1, listed as sumatriptan) was 70% and the EC50 ([3]; n=1) was 138 nM.
